Assays:
human EAAT2 = assay: In vitro assay in primary astrocyte cultures (PA-EAAT2 cells), EAAT2 protein levels by Western blot; type: cell-based; conditions: for In vitro - fold increase for EAAT2 in cultured astrocytes at indicated concentration (maximum activity): PA-EAAT2 cells treated 24 hr at 0.25-25 μM, relative to DMSO controls, value at the concentration that reaches maximum activity; for indicated concentration that reaches maximum activity (EAAT2 increase in cultured astrocytes): PA-EAAT2 cells, 24 hr, tested at 0.25, 0.5, 1, 2.5, 5, 10 and 25 μM
Protocol: In vitro assay in primary astrocyte cultures. Example compounds were initially evaluated in PA-EAAT2 cells, a primary astrocyte stably expressing human EAAT2 mRNAs (Kong et al., J Clin Invest. 124:1255-67). Cells were treated with the example compounds at 0.25 μM, 0.5 μM, 1 μM, 2.5 μM, 5 μM, 10 μM, and 25 μM for 24 hr and then harvested for measuring EAAT2 protein levels by Western blot analysis.

EAAT2 = assay: In vivo assay in wild-type mice, EAAT2 protein levels in forebrain gliosomes by Western blot; conditions: C57BL/6J mice, 40 mg/kg oral gavage, relative to vehicle controls
Protocol: In vivo assay in wild-type mice. Example compounds that were capable of increasing EAAT2 protein expression in cultured astrocytes were further evaluated in C57BL/6J mice. Mice were treated by oral gavage with the compound at 40 mg/kg. At 24 hr post-treatment, mice were euthanized and forebrains were harvested for the gliosome preparation (Dunkley et al., Nat Protoc 3, 1718-1728). Gliosomes are enriched with astrocytic processes, and majority of EAAT2 is localized in astrocytic processes (gliosomes). EAAT2 protein levels in gliosomes were determined by Western blot analysis.

Compound	In vitro - fold increase for EAAT2 in cultured astrocytes at indicated concentration (maximum activity) (human EAAT2)	indicated concentration that reaches maximum activity (EAAT2 increase in cultured astrocytes) (human EAAT2)	In vivo - fold increase for EAAT2 in mouse forebrain at 24 hr post treatment (40 mg/kg by PO) (EAAT2)
O=C(Nc1ccc(-c2ccccn2)nc1)c1ccc(Cl)cc1 [Example 22, N-([2,2′-bipyridin]-5-yl)-4-chlorobenzamide]	1.64 fold	(0.5 μM)	1.20 fold
CN(C)CCOc1ccc(-c2ccccn2)cn1 [Example 94, 2-([2,3′-bipyridin]-6′-yloxy)-N,N-dimethylethan-1-amine]	1.51 fold	(5 μM)	1.49 fold
O=C(Nc1ccc(-c2ccccn2)nc1)c1ccccc1 [Example 18, N-([2,2′-bipyridin]-5-yl)benzamide]	2.45 fold	(1 μM)	1.56 fold
O=C(Nc1ccc(-c2ccccn2)nc1)c1ccc(F)cc1 [Example 19, N-([2,2′-bipyridin]-5-yl)-4-fluorobenzamide]	1.97 fold	(1 μM)	1.41 fold
O=C(Nc1ncc(-c2ccccn2)cn1)c1ccccc1 [Example 48, N-(5-(pyridin-2-yl)pyrimidin-2-yl)benzamide]	1.58 fold	(2.5 μM)	1.45 fold
O=C(Nc1cnc(-c2ccccn2)cn1)c1ccccc1 [Example 33, N-(5-(pyridin-2-yl)pyrazin-2-yl)benzamide]	no increase		no increase
CN(C)CCOc1ncc(-c2ccccn2)cn1 [Example 157, N,N-dimethyl-2-((5-(pyridin-2-yl)pyrimidin-2-yl)oxy)ethan-1-amine]	1.54 fold	(1 μM)	1.37 fold
COc1ccc(C(=O)Nc2ccc(-c3ccccn3)nc2)cc1 [Example 21, N-([2,2′-bipyridin]-5-yl)-4-methoxybenzamide]	1.73 fold	(0.5 μM)	1.34 fold
O=C(Nc1ccc(-c2ccccn2)nc1)c1cccc(Cl)c1 [Example 23, N-([2,2′-bipyridin]-5-yl)-3-chlorobenzamide]	1.84 fold	(2.5 μM)	1.45 fold
CN(C)CCOc1cnc(-c2ccccn2)cn1 [Example 136, N,N-dimethyl-2-((5-(pyridin-2-yl)pyrazin-2-yl)oxy)ethan-1-amine]	no increase		no increase
O=C(Nc1ccc(-c2ccccn2)cn1)c1ccccc1 [Example 3, N-([2,3′-bipyridin]-6′-yl)benzamide]	1.68 fold	(5 μM)	1.42 fold
O=C(Nc1cnc(-c2ccccn2)nc1)c1ccccc1 [Example 63, N-(2-(pyridin-2-yl)pyrimidin-5-yl)benzamide]	1.32 fold	(5 μM)	no increase

— patent US11377436B2, “EAAT2 enhancing molecules” (THE BRIGHAM AND WOMEN'S HOSPITAL, INC., priority 2017, dated 2022)
